Experimental findings from patent US10676485B2, “Macrocyclic MCL-1 inhibitors and methods of use” (AbbVie Inc., priority 2017, dated 2020) are described below.

As usually defined, the Ki is the dissociation constant of the complex between target and ligand, obtained from inhibition or displacement. The term pKi denotes −log10 of the Ki, conventionally taken in molar units. By IC50 is commonly meant the concentration that gives 50% inhibition.

pKi: −log10 of the molar value. Where two headings read alike, the source gives them in different places.

For assay [1], the target named is GST-MCL-1 (Homo sapiens (Human), UniProt Q07820). As to the kind of experiment: TR-FRET MCL-1 binding assay (competition with probe F-Bak). The conditions noted are these: for Ki: read-out: MCL-1 Binding Ki (nM, 10% HS), in the presence of 10% HS; for pKi: without HS, read-out: MCL-1 Binding Ki. How it is done:
For the assay, an acoustic dispenser was used to prepare dilution series from 10 mM test compounds in 100% DMSO and directly transfer 160 nL into low volume 384-well assay plates. 8 μL of a protein/probe/antibody mix was then added to each well resulting in final concentrations listed below: Test compound: 11 three-fold dilutions beginning at 25 μM
The samples were then mixed on a shaker for 1 minute and incubated for an additional 2 hours at room temperature. For each assay plate, a probe/antibody and protein/antibody/probe mixture were included as a negative and a positive control, respectively. Fluorescence was measured on the Envision (Perkin Elmer) using a 340/35 nm excitation filter and 520/525 (F-Bak) and 495/510 nm (Tb-labeled anti-his antibody) emission filters. […] The TR-FRET assay can be performed in the presence of varying concentrations of human serum (HS) or fetal bovine serum (FBS). Compounds were tested both without HS and in the presence of 10% HS.
(TR-FRET usually uses a lanthanide donor and a delayed reading to cut background.)

The test system of assay [2] is NCI-H929 human multiple myeloma tumor cell line. Description: NCI-H929 cell viability assay (CellTiter-Glo). It counts as cell-based. The conditions noted are these: NCI-H929, read-out: H929 Viability IC50 (μM), 10% FBS, 24 hours of compound treatment.
In assay [3] the test system is AMO-1 human multiple myeloma tumor cell line. As to the kind of experiment: AMO-1 cell viability assay (CellTiter-Glo). Conditions: AMO1, read-out: AMO-1 Viability IC50 (μM), 10% FBS, 24 hours of compound treatment. It is filed as cell-based. A general note: ATP-based viability assays read luminescence as a measure of living cells.
Experimental: In one exemplary set of conditions, NCI-H929 or AMO-1 (ATCC. Manassas, Va.) were plated 4.000 cells per well in 384-well tissue culture plates (Corning. Corning, N.Y.) in a total volume of 25 μL RPMI tissue culture medium supplemented with 10% fetal bovine serum (Sigma-Aldrich, St. Louis, Mo.) and treated with a 3-fold serial dilution of the compounds of interest with a Labcyte Echo from a final concentration of 10 μM to 0.0005 μM. Each concentration was tested in duplicate at least 3 independent times. A luminescent signal proportional to the number of viable cells following 24 hours of compound treatment was determined using the CellTiter-Glo® Luminescent Cell Viability Assay according to the manufacturer's recommendations (Promega Corp., Madison, Wis.). The plates were read in a Perkin Elmer Envision using a Luminescence protocol. To generate dose response curves the data is normalized to percent viability by setting the averages of the staurosporine (10 uM) and DMSO only control wells to 0% and (00)% viability respectively. The IC50 values for the compounds are generated by fitting the normalized data with Accelrys Assay Explorer 3.3 to a sigmoidal curve model using linear regression.

Chain of GST-MCL-1 (Q07820 whole entry): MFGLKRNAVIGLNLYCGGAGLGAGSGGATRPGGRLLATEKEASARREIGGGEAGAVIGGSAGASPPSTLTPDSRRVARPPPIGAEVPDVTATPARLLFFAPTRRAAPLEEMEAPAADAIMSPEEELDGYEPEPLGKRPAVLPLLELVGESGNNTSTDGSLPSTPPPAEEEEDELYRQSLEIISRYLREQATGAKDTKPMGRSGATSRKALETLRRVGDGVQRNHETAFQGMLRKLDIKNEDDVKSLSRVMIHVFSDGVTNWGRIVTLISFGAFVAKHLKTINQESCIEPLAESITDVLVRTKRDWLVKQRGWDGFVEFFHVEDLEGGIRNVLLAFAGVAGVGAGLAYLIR

As for `Cc1c(Cl)c2c(Cl)c(C)c1-c1c(-c3ccc(F)cc3)sc3ncnc(c13)O[C@@H](C(=O)O)Cc1cc(ccc1OCc1cncc(-c3ccc(OC[C@H]4COCCO4)cc3)n1)OC[C@@H](CN1CCN(C)CC1)O2` [Example 16, (7R,16R)-19,23-dichloro-10-{[6-(4-{[(2R)-1,4-dioxan-2-yl]methoxy}phenyl)pyrazin-2-yl]methoxy}-1-(4-fluorophenyl)-20,22-dimethyl-16-[(4-methylpiperazin-1-yl)methyl]-7,8,15,16-tetrahydro-18,21-etheno-13,9-(metheno)-6,14,17-trioxa-2-thia-3,5-diazacyclononadeca[1,2,3-cd]indene-7-carboxylic acid], in assay [1], the Ki stood at 0.83 nM and the pKi was 10.32. The IC50 in assay [2] came out at 0.000592 µM. In assay [3], the IC50 was found to be 0.245 nM.
With `Cc1c(Cl)c2c(Cl)c(C)c1-c1c(C3CCCCC3)sc3ncnc(c13)O[C@@H](C(=O)O)Cc1cc(ccc1OCc1ccnc(-c3ccc(OC[C@@H]4COCCO4)cc3)n1)OC[C@@H](CN1CCN(C)CC1)O2` [Example 17, (7R,16R)-19,23-dichloro-1-cyclohexyl-10-{[2-(4-{[(2S)-1,4-dioxan-2-yl]methoxy}phenyl)pyrimidin-4-yl]methoxy}-20,22-dimethyl-16-[(4-methylpiperazin-1-yl)methyl]-7,8,15,16-tetrahydro-18,21-etheno-9,13-(metheno)-6,14,17-trioxa-2-thia-3,5-diazacyclononadeca[1,2,3-cd]indene-7-carboxylic acid], in assay [1], the Ki was found to be 4.11 nM and the pKi is 10.05. The IC50 in assay [2] worked out at 0.00565 µM. For the same compound, the IC50 in assay [3] was determined as 1 nM.
As for `COc1ccccc1-c1nccc(COc2ccc3cc2C[C@H](C(=O)O)Oc2ncnc4sc(C[C@@H]5COCCO5)c(c24)-c2c(C)c(Cl)c(c(Cl)c2C)O[C@H](CN2CCN(C)CC2)CO3)n1` [Example 18, (7R,16R)-19,23-dichloro-1-{[(2R)-1,4-dioxan-2-yl]methyl}-10-{[2-(2-methoxyphenyl)pyrimidin-4-yl]methoxy}-20,22-dimethyl-16-[(4-methylpiperazin-1-yl)methyl]-7,8,15,16-tetrahydro-18,21-etheno-13,9-(metheno)-6,14,17-trioxa-2-thia-3,5-diazacyclononadeca[1,2,3-cd]indene-7-carboxylic acid], in assay [1], the Ki was 0.24 nM and the pKi was 9.95. The half-inhibitory concentration (IC50) in assay [2] came to 0.00995 µM. In addition, the IC50 in assay [3] came out at 6.12 nM.
With `COc1ccccc1-c1nccc(COc2ccc3cc2C[C@H](C(=O)O)Oc2ncnc4sc(C[C@H]5COCCO5)c(c24)-c2c(C)c(Cl)c(c(Cl)c2C)O[C@H](CN2CCN(C)CC2)CO3)n1` [Example 19, (7R,16R)-19,23-dichloro-1-{[(2S)-1,4-dioxan-2-yl]methyl}-10-{[2-(2-methoxyphenyl)pyrimidin-4-yl]methoxy}-20,22-dimethyl-16-[(4-methylpiperazin-1-yl)methyl]-7,8,15,16-tetrahydro-18,21-etheno-13,9-(metheno)-6,14,17-trioxa-2-thia-3,5-diazacyclononadeca[1,2,3-cd]indene-7-carboxylic acid], in assay [1], the Ki is 0.64 nM and the pKi is 9.81. The IC50 in assay [2] is 0.0152 µM. The IC50 in assay [3] came out at 9.74 nM.
The matching figures for `Cc1c(Cl)c2c(Cl)c(C)c1-c1c(-c3ccc(F)cc3)sc3ncnc(c13)O[C@@H](C(=O)O)Cc1cc(ccc1OCc1ccnc(N3CCO[C@@H](COCC4COCCO4)C3)n1)OC[C@@H](CN1CCN(C)CC1)O2` (stereo partly drawn) [Example 20, (7R,16R)-19,23-dichloro-10-({2-[(2R)-2-{[(1,4-dioxan-2-yl)methoxy]methyl}morpholin-4-yl]pyrimidin-4-yl}methoxy)-1-(4-fluorophenyl)-20,22-dimethyl-16-[(4-methylpiperazin-1-yl)methyl]-7,8,15,16-tetrahydro-18,21-etheno-13,9-(metheno)-6,14,17-trioxa-2-thia-3,5-diazacyclononadeca[1,2,3-cd]indene-7-carboxylic acid]: 0.47 nM, 10.24, 0.000513 µM and 0.286 nM.
As for `Cc1c(Cl)c2c(Cl)c(C)c1-c1c(-c3ccc(F)cc3)sc3ncnc(c13)O[C@@H](C(=O)O)Cc1cc(ccc1OCc1ccnc(-c3cccc(OC[C@H]4COCCO4)c3)n1)OC[C@@H](CN1CCN(C)CC1)O2` [Example 21, (7R,16R)-19,23-dichloro-10-{[2-(3-{[(2R)-1,4-dioxan-2-yl]methoxy}phenyl)pyrimidin-4-yl]methoxy}-1-(4-fluorophenyl)-20,22-dimethyl-16-[(4-methylpiperazin-1-yl)methyl]-7,8,15,16-tetrahydro-18,21-etheno-13,9-(metheno)-6,14,17-trioxa-2-thia-3,5-diazacyclononadeca[1,2,3-cd]indene-7-carboxylic acid], the Ki in assay [1] was 1.01 nM. Also, in assay [1], the pKi is 10.96. For the same compound, the concentration for half-maximal inhibition (IC50) stood at 0.000168 µM in assay [2] and 0.0488 nM in assay [3].
Take `Cc1c(Cl)c2c(Cl)c(C)c1-c1c(-c3ccc(F)cc3)sc3ncnc(c13)O[C@@H](C(=O)O)Cc1cc(ccc1OCc1ccnc(-c3cccc(OC[C@@H]4COCCO4)c3)n1)OC[C@@H](CN1CCN(C)CC1)O2` [Example 22, (7R,16R)-19,23-dichloro-10-{[2-(3-{[(2S)-1,4-dioxan-2-yl]methoxy}phenyl)pyrimidin-4-yl]methoxy}-1-(4-fluorophenyl)-20,22-dimethyl-16-[(4-methylpiperazin-1-yl)methyl]-7,8,15,16-tetrahydro-18,21-etheno-13,9-(metheno)-6,14,17-trioxa-2-thia-3,5-diazacyclononadeca[1,2,3-cd]indene-7-carboxylic acid]: in assay [1], the Ki came out at 0.89 nM and the negative logarithm of the Ki (pKi) was 10.80. In addition, in assay [2], the half-maximal inhibitory concentration (IC50) is 0.000333 µM. Besides, the IC50 in assay [3] amounted to 0.142 nM.
The matching figures for `Cc1c(Cl)c2c(Cl)c(C)c1-c1c(-c3ccc(F)cc3)sc3ncnc(c13)O[C@@H](C(=O)O)Cc1cc(ccc1OCc1nccc(-c3ccc(OC[C@H]4COCCO4)cc3)n1)OC[C@@H](CN1CCN(C)CC1)O2` [Example 23, (7R,16R)-19,23-dichloro-10-{[4-(4-{[(2R)-1,4-dioxan-2-yl]methoxy}phenyl)pyrimidin-2-yl]methoxy}-1-(4-fluorophenyl)-20,22-dimethyl-16-[(4-methylpiperazin-1-yl)methyl]-7,8,15,16-tetrahydro-18,21-etheno-13,9-(metheno)-6,14,17-trioxa-2-thia-3,5-diazacyclononadeca[1,2,3-cd]indene-7-carboxylic acid]: 41 nM, 8.30, 0.00849 µM and 3.15 nM.
The matching figures for `Cc1c(Cl)c2c(Cl)c(C)c1-c1c(-c3ccc(F)cc3)sc3ncnc(c13)O[C@@H](C(=O)O)Cc1cc(ccc1OCc1ccnc(OC[C@@H]3COCCO3)n1)OC[C@@H](CN1CCN(C)CC1)O2` [Example 24, (7R,16R)-19,23-dichloro-10-[(2-{[(2S)-1,4-dioxan-2-yl]methoxy}pyrimidin-4-yl)methoxy]-1-(4-fluorophenyl)-20,22-dimethyl-16-[(4-methylpiperazin-1-yl)methyl]-7,8,15,16-tetrahydro-18,21-etheno-9,13-(metheno)-6,14,17-trioxa-2-thia-3,5-diazacyclononadeca[1,2,3-cd]indene-7-carboxylic acid]: 0.38 nM, 10.42, 0.00197 µM and 0.687 nM.
`Cc1c(Cl)c2c(Cl)c(C)c1-c1c(-c3ccc(F)cc3)sc3ncnc(c13)O[C@@H](C(=O)O)Cc1cc(ccc1OCc1ccnc(OC[C@H]3COCCO3)n1)OC[C@@H](CN1CCN(C)CC1)O2` [Example 25, (7R,16R)-19,23-dichloro-10-[(2-{[(2R)-1,4-dioxan-2-yl]methoxy}pyrimidin-4-yl)methoxy]-1-(4-fluorophenyl)-20,22-dimethyl-16-[(4-methylpiperazin-1-yl)methyl]-7,8,15,16-tetrahydro-18,21-etheno-9,13-(metheno)-6,14,17-trioxa-2-thia-3,5-diazacyclononadeca[1,2,3-cd]indene-7-carboxylic acid]: in assay [1], the Ki amounted to 0.19 nM and the pKi is 11.52. Besides, in assay [2], the IC50 is 0.00188 µM. Besides, the IC50 in assay [3] turned out to be 0.629 nM.
Consider `Cc1c(Cl)c2c(Cl)c(C)c1-c1c(-c3ccc(F)cc3)sc3ncnc(c13)O[C@@H](C(=O)O)Cc1cc(ccc1OCc1ccnc(N3CCN(S(=O)(=O)CC4COCCO4)CC3)n1)OC[C@@H](CN1CCN(C)CC1)O2` (stereo partly drawn) [Example 26, (7R,16R)-19,23-dichloro-10-[(2-{4-[(1,4-dioxan-2-yl)methanesulfonyl]piperazin-1-yl}pyrimidin-4-yl)methoxy]-1-(4-fluorophenyl)-20,22-dimethyl-16-[(4-methylpiperazin-1-yl)methyl]-7,8,15,16-tetrahydro-18,21-etheno-13,9-(metheno)-6,14,17-trioxa-2-thia-3,5-diazacyclononadeca[1,2,3-cd]indene-7-carboxylic acid], for which, in assay [1], the inhibition constant Ki was 1 nM and the pKi was 9.98. Moreover, the IC50 in assay [2] is 0.000241 µM. In addition, the IC50 in assay [3] was 0.2 nM.
